The values below come from patent US8153809B2, “Dihydropyridone ureas as P2X7 modulators” (Roche Palo Alto LLC, priority 2008, dated 2012).

In this test the target is T1, P2X7 (UniProt Q99572).
T1 sequence (Q99572 1-595): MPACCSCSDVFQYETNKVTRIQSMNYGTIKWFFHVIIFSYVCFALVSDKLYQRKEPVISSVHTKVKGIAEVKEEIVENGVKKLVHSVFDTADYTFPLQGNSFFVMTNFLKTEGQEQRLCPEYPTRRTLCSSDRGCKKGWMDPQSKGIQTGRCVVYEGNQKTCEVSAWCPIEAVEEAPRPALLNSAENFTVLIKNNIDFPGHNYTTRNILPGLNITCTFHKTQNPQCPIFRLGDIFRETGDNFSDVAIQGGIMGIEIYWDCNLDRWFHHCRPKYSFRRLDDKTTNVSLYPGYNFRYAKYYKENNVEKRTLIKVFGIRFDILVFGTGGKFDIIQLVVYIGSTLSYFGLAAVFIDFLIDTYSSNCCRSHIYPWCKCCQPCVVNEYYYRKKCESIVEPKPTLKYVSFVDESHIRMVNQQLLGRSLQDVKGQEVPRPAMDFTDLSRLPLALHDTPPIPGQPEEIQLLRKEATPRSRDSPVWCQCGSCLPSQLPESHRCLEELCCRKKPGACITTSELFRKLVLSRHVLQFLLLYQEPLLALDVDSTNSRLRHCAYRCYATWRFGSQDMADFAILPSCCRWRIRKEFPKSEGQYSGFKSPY
As to the kind of experiment: pIC50 values for P2X7 (Table 1). Type of test: cell-based. The gist of the method:
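Fluo-3-loaded 1321N1 cells expressing human P2X7 or HEK293 cells expressing rat P2X7, preincubated 20 min at room temperature with antagonist in HBSS/Hepes/probenecid buffer with 2 mM CaCl2. BzATP agonist at 100 μM final (human) or 5 μM final (rat); fluorescence read 5 min, peak normalized to 5 μM ionomycin response.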
As for `Cc1ccccc1NC(=O)N1C=CC(=O)C[C@H]1c1ccc(F)cc1` [Compound 131, (S)-2-(4-Fluoro-phenyl)-4-oxo-3,4-dihydro-2H-pyridine-1-carbxoylic acid o-tolylamide], the pIC50 turned out to be 7.53.
`COc1cccc(NC(=O)N2C=CC(=O)C[C@H]2c2ccc(F)cc2)c1C` [Compound 132, (S)-2-(4-Fluoro-phenyl)-4-oxo-3,4-dihydro-2H-pyridine-1-carboxylic acid (3-methoxy-2-methyl-phenyl)-amide] displayed a negative logarithm of the IC50 (pIC50) of 8.57.
For `Cc1cc(Cl)c(CCO)cc1NC(=O)N1C=CC(=O)C[C@H]1c1ccc(F)cc1` [Compound 133, (S)-2-(4-Fluoro-phenyl)-4-oxo-3,4-dihydro-2H-pyridine-1-carboxylic acid [4-chloro-5-(2-hydroxy-ethyl)-2-methyl-phenyl]-amide], the pIC50 is 8.06.
To `O=C1C=CN(C(=O)Nc2ccc3c(c2)NC(=O)C3)[C@H](c2ccc(F)cc2)C1` [Compound 134, (S)-2-(4-Fluoro-phenyl)-4-oxo-3,4-dihydro-2H-pyridine-1-carboxylic acid (2-oxo-2,3-dihydro-1H-indol-6-yl)-amide] belongs 5.385.
The value for `O=C1C=CN(C(=O)Nc2cc3c(cc2Br)OCCO3)[C@H](c2ccc(F)cc2)C1` [Compound 136, (S)-2-(4-Fluoro-phenyl)-4-oxo-3,4-dihydro-2H-pyridine-1-carboxylic acid (7-bromo-2,3-dihydro-benzo[1,4]dioxin-6-yl)-amide] was 8.095; that for `Cc1ccc(NC(=O)N2C=CC(=O)C[C@H]2c2ccc(F)cc2)cc1` [Compound 137, (S)-2-(4-Fluoro-phenyl)-4-oxo-3,4-dihydro-2H-pyridine-1-carboxylic acid p-tolylamide] was 6.57; that for `Cc1c(Cl)cccc1NC(=O)N1C=CC(=O)C[C@H]1c1ccc(F)cc1` [Compound 138, (S)-2-(4-Fluoro-phenyl)-4-oxo-3,4-dihydro-2H-pyridine-1-carboxylic acid (3-chloro-2-methyl-phenyl)-amide] was 8.34.
To `Cc1c(CO)cccc1NC(=O)N1C=CC(=O)C[C@H]1c1ccc(F)cc1` [Compound 139, (S)-2-(4-Fluoro-phenyl)-4-oxo-3,4-dihydro-2H-pyridine-1-carboxylic acid (3-hydroxymethyl-2-methyl-phenyl)-amide] belongs 7.79; to `Cc1cc2ccn(C)c2cc1NC(=O)N1C=CC(=O)C[C@H]1c1ccc(F)cc1` [Compound 140, (S)-2-(4-Fluoro-phenyl)-4-oxo-3,4-dihydro-2H-pyridine-1-carboxylic acid (1,5-dimethyl-1H-indol-6-yl)-amide], 8.565; to `CNC(=O)c1cccc(NC(=O)N2C=CC(=O)C[C@H]2c2ccc(F)cc2)c1C` [Compound 141, (S)-2-(4-Fluoro-phenyl)-4-oxo-3,4-dihydro-2H-pyridine-1-carboxylic acid (2-methyl-3-methylcarbamoyl-phenyl)-amide], 6.185.
The compound `Cc1cc(Cl)c(OC2CCNCC2)cc1NC(=O)N1C=CC(=O)C[C@H]1c1ccc(F)cc1` [Compound 142, (S)-2-(4-Fluoro-phenyl)-4-oxo-3,4-dihydro-2H-pyridine-1-carboxylic acid [4-chloro-2-methyl-5-(piperidin-4-yloxy)-phenyl]-amide] returned a negative logarithm of the IC50 (pIC50) of 6.71.
In the case of `Cc1cc2c(cc1NC(=O)N1C=CC(=O)C[C@H]1c1ccc(F)cc1)OCCN2C` [Compound 143, (S)-2-(4-Fluoro-phenyl)-4-oxo-3,4-dihydro-2H-pyridine-1-carboxylic acid (4,6-dimethyl-3,4-dihydro-2H-benzo[1,4]oxazin-7-yl)-amide], the negative logarithm of the IC50 (pIC50) stood at 7.825.
`Cc1c(CC(=O)OC(C)(C)C)cccc1NC(=O)N1C=CC(=O)C[C@H]1c1ccc(F)cc1` [Compound 144, (3-{[(S)-2-(4-Fluoro-phenyl)-4-oxo-3,4-dihydro-2H-pyridine-1-carbonyl]amino}-2-methyl-phenyl)-acetic acid tert-butyl ester]: the pIC50 was 6.215.
To `Cc1nn(C)c2cc(NC(=O)N3C=CC(=O)C[C@H]3c3ccc(F)cc3)ccc12` [Compound 145, (S)-2-(4-Fluoro-phenyl)-4-oxo-3,4-dihydro-2H-pyridine-1-carboxylic acid (1,3-dimethyl-1H-indazol-6-yl)-amide] belongs 6.535; to `Cc1c2ccc(NC(=O)N3C=CC(=O)C[C@H]3c3ccc(F)cc3)cc2nn1C` [Compound 146, (S)-2-(4-Fluoro-phenyl)-4-oxo-3,4-dihydro-2H-pyridine-1-carboxylic acid (2,3-dimethyl-2H-indazol-6-yl)-amide], 5.615; to `Cn1cc2ccc(NC(=O)N3C=CC(=O)C[C@H]3c3cccc(F)c3)cc2n1` [Compound 147, (S)-2-(3-Fluoro-phenyl)-4-oxo-3,4-dihydro-2H-pyridine-1-carbxoylic acid (2-methyl-2H-indazol-6-yl)-amide], 5.505.
As for `Cn1cc2cc(NC(=O)N3C=CC(=O)C[C@H]3c3ccc(F)cc3)ccc2n1` [Compound 148, (S)-2-(4-Fluoro-phenyl)-4-oxo-3,4-dihydro-2H-pyridine-1-carboxylic acid (2-methyl-2H-indazol-5-yl)-amide], the pIC50 came out at 6.87.
In turn, `CCc1c(NC(=O)N2C=CC(=O)C[C@H]2c2ccc(F)cc2)ccc2ncccc12` [Compound 149, (S)-2-(4-Fluoro-phenyl)-4-oxo-3,4-dihydro-2H-pyridine-1-carboxylic acid (5-ethyl-quinolin-6-yl)-amide] gave a pIC50 of 8.445.
Consider `Cc1c(CCO)cccc1NC(=O)N1C=CC(=O)C[C@H]1c1ccc(F)cc1` [Compound 150, (S)-2-(4-Fluoro-phenyl)-4-oxo-3,4-dihydro-2H-pyridine-1-carboxylic acid [3-(2-hydroxy-ethyl)-2-methyl-phenyl]-amide], for which the pIC50 is recorded as 7.835.
As to `Cc1c2ccc(NC(=O)N3C=CC(=O)C[C@H]3c3ccc(F)cc3)c(Br)c2nn1C` [Compound 151, (S)-2-(4-Fluoro-phenyl)-4-oxo-3,4-dihydro-2H-pyridine-1-carboxylic acid (7-bromo-2,3-dimethyl-2H-indazol-6-yl)-amide], the pIC50 is 5.975.
In turn, `O=C1C=CN(C(=O)Nc2cccc3c2CCO3)[C@H](c2ccc(F)cc2)C1` [Compound 152, (S)-2-(4-Fluoro-phenyl)-4-oxo-3,4-dihydro-2H-pyridine-1-carboxylic acid (2,3-dihydro-benzofuran-4-yl)-amide] gave a negative logarithm of the IC50 (pIC50) of 7.355.
The value for `CCc1cc2ncccc2cc1NC(=O)N1C=CC(=O)C[C@H]1c1ccc(F)cc1` [Compound 153, (S)-2-(4-Fluoro-phenyl)-4-oxo-3,4-dihydro-2H-pyridine-1-carboxylic acid (7-ethyl-quinolin-6-yl)-amide] was 7.85; that for `O=C1C=CN(C(=O)Nc2cccc3ncccc23)[C@H](c2ccc(F)cc2)C1` [Compound 154, (S)-2-(4-Fluoro-phenyl)-4-oxo-3,4-dihydro-2H-pyridine-1-carboxylic acid quinolin-5-ylamide] was 8.64; that for `Cc1cc(F)c(F)cc1NC(=O)N1C=CC(=O)C[C@H]1c1ccc(F)cc1` [Compound 155, (S)-2-(4-Fluoro-phenyl)-4-oxo-3,4-dihydro-2H-pyridine-1-carboxylic acid (4,5-difluoro-2-methyl-phenyl)-amide] was 7.12.
Compound `Cc1cc2ccn(CCO)c2cc1NC(=O)N1C=CC(=O)C[C@H]1c1ccc(F)cc1` [Compound 156, (S)-2-(4-Fluoro-phenyl)-4-oxo-3,4-dihydro-2H-pyridine-1-carboxylic acid [1-(2-hydroxy-ethyl)-5-methyl-1H-indol-6-yl]-amide] displayed a negative-log IC50 (pIC50) of 8.155.
`O=C1C=CN(C(=O)Nc2cc(F)c(F)cc2Br)C(c2ccc(F)cc2)C1` (stereo not drawn) [Compound 157, 2-(4-Fluoro-phenyl)-4-oxo-3,4-dihydro-2H-pyridine-1-carboxylic acid (2-bromo-4,5-difluoro-phenyl)-amide] registered a pIC50 of 6.43.
Compound `Cc1ccc(NC(=O)N2C=CC(=O)C[C@H]2c2ccc(F)cc2)cc1C` [Compound 158, (S)-2-(4-Fluoro-phenyl)-4-oxo-3,4-dihydro-2H-pyridine-1-carboxylic acid (3,4-dimethyl-phenyl)-amide] had a negative logarithm of the IC50 (pIC50) of 7.01.

By pIC50 is commonly meant the IC50 on a negative log10 scale, so that one unit is a factor of ten. A high value points to a small IC50.
